The values below come from patent US11986471B2, “Compounds and methods of use” (Tango Therapeutics, Inc., priority 2018, dated 2024).

For one test, the system named is HAP1 MTAP-deleted. Kind of test: SDMA in-cell western assay, HAP1 MTAP-deleted cell line. The conditions noted are these: for IC50: Homo sapiens, HAP1 MTAP-deleted cell line; for MTAP Intact/Deleted Ratio: IC50 ratio HAP1 MTAP-intact / HAP1 MTAP-deleted. In kind it is cell-based. The essentials: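 Readout is cellular SDMA signal by in-cell western, with IC50 values derived from it. The cells are MTAP-null HAP1, matched to an isogenic MTAP-intact HAP1 line.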

Test [1] addresses T1, PRMT5 (Homo sapiens, UniProt O14744).
T1 construct: purchased Viva (custom protein)
Briefly: PRMT5 IC50 assay with no cofactor. In kind it is biochemical. The essentials:
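IC50 against PRMT5 determined with SAM as cofactor, with no cofactor, and with MTA as cofactor. Ki derived as IC50/1.5 for the SAM assay and IC50/13.5 for the MTA assay; SAM Ki to MTA Ki ratio also reported.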

A further test deals with HAP1 MTAP-intact. Briefly: SDMA in-cell western assay, HAP1 MTAP-intact cell line. It counts as cell-based. Particulars: Homo sapiens. The essentials: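 IC50 values come from SDMA in-cell western staining of HAP1 cells. The MTAP-intact line carries endogenous MTAP, while its MTAP-deleted counterpart lacks MTAP entirely. A selectivity ratio of at least 3 fold marks a compound as MTAP-selective.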

Test [2] has as its target T1, PRMT5. Briefly: PRMT5 IC50 assay in the presence of SAM as cofactor. In kind it is biochemical. The essentials: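 Enzyme: human PRMT5. Conditions: plus SAM, plus MTA, or cofactor-free. Output: IC50 (μM); Ki via IC50/1.5 (SAM) or IC50/13.5 (MTA).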
The target in test [3] is T1, PRMT5. Briefly: PRMT5 IC50 assay in the presence of MTA as cofactor. In kind it is biochemical. The conditions noted are these: for IC50: PRMT5, MTA as cofactor. The essentials:
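IC50 values were measured against human PRMT5 with SAM, with MTA, or with no cofactor. Ki was derived from IC50 as Ki=IC50/1.5 with SAM and Ki=IC50/13.5 with MTA, and the Ki(SAM)/Ki(MTA) ratio was then taken.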

Where [4] appears, read: ratio between Ki in the presence of SAM and Ki in the presence of MTA.
Where [5] appears, read: ratio between the Ki in the presence of SAM and the Ki in the presence of MTA.

T1 sequence (O14744 whole entry): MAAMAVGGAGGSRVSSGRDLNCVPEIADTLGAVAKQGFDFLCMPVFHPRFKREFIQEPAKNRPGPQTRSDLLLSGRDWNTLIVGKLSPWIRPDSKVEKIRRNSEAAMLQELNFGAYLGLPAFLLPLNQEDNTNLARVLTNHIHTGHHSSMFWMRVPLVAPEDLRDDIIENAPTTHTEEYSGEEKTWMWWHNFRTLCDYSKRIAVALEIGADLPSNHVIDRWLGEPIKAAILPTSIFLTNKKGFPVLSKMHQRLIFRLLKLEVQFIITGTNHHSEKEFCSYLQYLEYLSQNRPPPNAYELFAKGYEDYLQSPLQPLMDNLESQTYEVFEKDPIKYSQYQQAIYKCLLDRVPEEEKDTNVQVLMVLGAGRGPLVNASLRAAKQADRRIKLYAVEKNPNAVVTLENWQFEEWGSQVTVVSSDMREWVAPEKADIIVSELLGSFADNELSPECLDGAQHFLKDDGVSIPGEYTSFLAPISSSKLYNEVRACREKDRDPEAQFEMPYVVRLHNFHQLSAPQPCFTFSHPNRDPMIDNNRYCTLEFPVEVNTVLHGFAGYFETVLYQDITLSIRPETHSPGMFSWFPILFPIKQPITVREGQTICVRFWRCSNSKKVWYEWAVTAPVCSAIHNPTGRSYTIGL
T1 sequence (Q9BQA1 whole entry partner): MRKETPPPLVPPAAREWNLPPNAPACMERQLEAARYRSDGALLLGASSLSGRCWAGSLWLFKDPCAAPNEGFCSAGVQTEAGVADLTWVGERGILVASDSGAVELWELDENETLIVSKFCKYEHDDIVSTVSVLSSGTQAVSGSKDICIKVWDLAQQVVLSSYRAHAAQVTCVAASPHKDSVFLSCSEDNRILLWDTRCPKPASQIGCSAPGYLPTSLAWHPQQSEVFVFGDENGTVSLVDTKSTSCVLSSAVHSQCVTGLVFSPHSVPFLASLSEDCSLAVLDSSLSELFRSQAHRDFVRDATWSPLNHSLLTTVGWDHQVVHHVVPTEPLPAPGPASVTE

What is called IC50 is the midpoint of a concentration-inhibition curve. With `COCCN(C)c1cc(C(=O)NC[C@H](O)CN2CCc3cc(OCc4cnco4)ccc3C2)cc(NC2CCC2)n1` [Compound 369, (S)-2-(cyclobutylamino)-N-(2-hydroxy-3-(6-(oxazol-5-ylmethoxy)-3,4-dihydroisoquinolin-2(1H)-yl)propyl)-6-((2-methoxyethyl)(methyl)amino)isonicotinamide], the half-inhibitory concentration (IC50) is no less than 10000 nM in the test with HAP1 MTAP-deleted; 500 to 5000 nM on PRMT5 [1] (read-out: No Co-factor IC50); 1000 to 10000 nM with HAP1 MTAP-intact; 500 to 5000 nM on PRMT5 [2]; 50 to 500 nM on PRMT5 [3]. Also, the “MTAP Intact/Deleted Ratio” value with HAP1 MTAP-deleted was “C* (an IC50 ratio of less than 3 fold between the IC50 in the HAP1 MTAP-intact cell line and the HAP1 MTAP-deleted cell line)”. For the same compound, the “SAM/MTA Ratio” value at PRMT5 [3] (setting [4]) was “A (a Ki ratio greater than or equal to 10 fold between the Ki in the presence of SAM and the Ki in the presence of MTA)”.
Take `O=C(NC[C@H](O)CN1CCc2cc(OCc3cnco3)ccc2C1)c1cc(NC2COC2)nc(N2CCN(C(=O)C3CC3)CC2)n1` [Compound 290, (S)-2-(4-(cyclopropanecarbonyl)piperazin-1-yl)-N-(2-hydroxy-3-(6-(oxazol-5-ylmethoxy)-3,4-dihydroisoquinolin-2(1H)-yl)propyl)-6-(oxetan-3-ylamino)pyrimidine-4-carboxamide]: the IC50 lay in the range of 1000 to 10000 nM in the test on HAP1 MTAP-deleted; 500 to 5000 nM at PRMT5 [1] (read-out: No Co-factor IC50); 1000 to 10000 nM in the test on HAP1 MTAP-intact; 50 to 500 nM on PRMT5 [2]; 50 to 500 nM at PRMT5 [3]. Further, in the test with HAP1 MTAP-deleted, the “MTAP Intact/Deleted Ratio” value is “B* (an IC50 ratio greater than or equal to 3 fold but lower than 10 fold between the IC50 in the HAP1 MTAP-intact cell line and the HAP1 MTAP-deleted cell line)”. Moreover, the “SAM/MTA Ratio” value on PRMT5 [3] (setting [4]) was “A (a Ki ratio greater than or equal to 10 fold between the Ki in the presence of SAM and the Ki in the presence of MTA)”.
As to `CC(=O)N1CCC(Nc2cc(C(=O)NC[C@H](O)CN3CCc4cc(OCc5ocnc5C)c(F)cc4C3)ccn2)CC1` [Compound 625], the IC50 with HAP1 MTAP-deleted is less than 1000 nM; at PRMT5 [1] (read-out: No Co-factor IC50) it was 500 to 5000 nM; in the test with HAP1 MTAP-intact, no less than 10000 nM; at PRMT5 [2] it was 50 to 500 nM; at PRMT5 [3], 50 to 500 nM. The “MTAP Intact/Deleted Ratio” value in the test on HAP1 MTAP-deleted is “A* (an IC50 ratio greater than or equal to 10 fold between the IC50 in the HAP1 MTAP-intact cell line and the HAP1 MTAP-deleted cell line)”. Besides, on PRMT5 [3] (setting [4]), the “SAM/MTA Ratio” value was “A (a Ki ratio greater than or equal to 10 fold between the Ki in the presence of SAM and the Ki in the presence of MTA)”.
Take `CC(=O)N1CCC(Nc2cc(C(=O)NC[C@H](O)CN3CCc4c(ccc(OCc5ccnn5C)c4Cl)C3)ncn2)CC1` [Compound 242, (S)-6-((1-acetylpiperidin-4-yl)amino)-N-(3-(5-chloro-6-((1-methyl-1H-pyrazol-5-yl)methoxy)-3,4-dihydroisoquinolin-2(1H)-yl)-2-hydroxypropyl)pyrimidine-4-carboxamide]: the IC50 in the test on HAP1 MTAP-deleted is no less than 10000 nM; on PRMT5 [1] (read-out: No Co-factor IC50), no less than 5000 nM; in the test on HAP1 MTAP-intact it was no less than 10000 nM; at PRMT5 [2] it was 500 to 5000 nM; on PRMT5 [3], 500 to 5000 nM. Besides, in the test with HAP1 MTAP-deleted, the “MTAP Intact/Deleted Ratio” value was “C* (an IC50 ratio of less than 3 fold between the IC50 in the HAP1 MTAP-intact cell line and the HAP1 MTAP-deleted cell line)”.
With `CC(C)(C)N1CCN(c2nc(NC3COC3)cc(C(=O)NC[C@H](O)CN3CCc4c(ccc(OCc5cnco5)c4Cl)C3)n2)CC1` [Compound 370, (S)-2-(4-(tert-butyl)piperazin-1-yl)-N-(3-(5-chloro-6-(oxazol-5-ylmethoxy)-3N-dihydroisoquinolin-2(1H)-yl)-2-hydroxypropyl)-6-(oxetan-3-ylamino)pyrimidine-4-carboxamide], the IC50 with HAP1 MTAP-deleted is 1000 to 10000 nM; at PRMT5 [1] (read-out: No Co-factor IC50) it was no less than 5000 nM; in the test on HAP1 MTAP-intact, no less than 10000 nM; on PRMT5 [2], 50 to 500 nM; on PRMT5 [3], 50 to 500 nM. In the test on HAP1 MTAP-deleted, the “MTAP Intact/Deleted Ratio” value was “C* (an IC50 ratio of less than 3 fold between the IC50 in the HAP1 MTAP-intact cell line and the HAP1 MTAP-deleted cell line)”. Further, the “SAM/MTA Ratio” value at PRMT5 [3] (setting [4]) is “A (a Ki ratio greater than or equal to 10 fold between the Ki in the presence of SAM and the Ki in the presence of MTA)”.
In the case of `Cc1ncoc1COc1ccc2c(c1)CCN(C[C@@H](O)CNC(=O)c1cc(NC3CCC3)ccn1)C2` [Compound 516, 4-(cyclobutylamino)-N-[(2S)-2-hydroxy-3-(6-[(4-methyl-1,3-oxazol-5-yl)methoxy]-1,2,3,4-tetrahydroisoquinolin-2-yl}propyl]pyridine-2-carboxamide], the 50% inhibitory concentration (IC50) in the test with HAP1 MTAP-deleted is less than 1000 nM; against PRMT5 [1], 500 to 5000 nM; in the test on HAP1 MTAP-intact, less than 1000 nM; at PRMT5 [2], 50 to 500 nM; at PRMT5 [3], 50 to 500 nM. Also, in the test with HAP1 MTAP-deleted, the “MTAP Intact/Deleted Ratio” value was “C* (an IC50 ratio of less than 3 fold between the IC50 in the HAP1 MTAP-intact cell line and the HAP1 MTAP-deleted cell line)”. In addition, the “SAM/MTA Ratio” value on PRMT5 [3] (setting [5]) is “A (a Ki ratio greater than or equal to 10 fold between the Ki in the presence of SAM and the Ki in the presence of MTA)”.
`CC(=O)N1CC(Nc2cc(C(=O)NC[C@H](O)CN3CCc4c(ccc(OCc5cnco5)c4Cl)C3)ccn2)C1` [Compound 380, (S)-2-((1-acetylazetidin-3-yl)amino)-N-(3-(5-chloro-6-(oxazol-5-ylmethoxy)-3,4-dihydroisoquinolin-2(1H)-yl)-2-hydroxypropyl)isonicotinamide]: the half-maximal inhibitory concentration (IC50) in the test with HAP1 MTAP-deleted was no less than 10000 nM; at PRMT5 [1] (read-out: No Co-factor IC50), 500 to 5000 nM; in the test with HAP1 MTAP-intact it was no less than 10000 nM; at PRMT5 [2] it was 50 to 500 nM; at PRMT5 [3], 50 to 500 nM. Also, the “MTAP Intact/Deleted Ratio” value with HAP1 MTAP-deleted is “C* (an IC50 ratio of less than 3 fold between the IC50 in the HAP1 MTAP-intact cell line and the HAP1 MTAP-deleted cell line)”. The “SAM/MTA Ratio” value at PRMT5 [3] (setting [4]) was “A (a Ki ratio greater than or equal to 10 fold between the Ki in the presence of SAM and the Ki in the presence of MTA)”.
`Cc1ncoc1COc1ccc2c(c1)CCN(C[C@@H](O)CNC(=O)c1ccc(OC3CCN(Cc4ccncc4)CC3)cc1)C2` [Compound 416, N-[(2S)-2-hydroxy-3-{6-[(4-methyl-1,3-oxazol-5-yl)methoxy]-1,2,3,4-tetrahydroisoquinolin-2-yl}propyl]-4-{[1-[(pyridin-4-yl)methyl]piperidin-4-yl}oxy)benzamide]: the half-maximal inhibitory concentration (IC50) is less than 1000 nM in the test with HAP1 MTAP-deleted; 500 to 5000 nM at PRMT5 [1] (read-out: No Co-factor IC50); less than 1000 nM with HAP1 MTAP-intact; 50 to 500 nM on PRMT5 [2]; 50 to 500 nM on PRMT5 [3]. Also, the “MTAP Intact/Deleted Ratio” value in the test with HAP1 MTAP-deleted was “C* (an IC50 ratio of less than 3 fold between the IC50 in the HAP1 MTAP-intact cell line and the HAP1 MTAP-deleted cell line)”. The “SAM/MTA Ratio” value at PRMT5 [3] (setting [4]) was “A (a Ki ratio greater than or equal to 10 fold between the Ki in the presence of SAM and the Ki in the presence of MTA)”.
Consider `CC(=O)N1CCC(Nc2cc(C(=O)NC[C@H](O)CN3CCc4cc(OCc5ocnc5C)ccc4C3)cc(N3CCN(C(C)=O)CC3)n2)CC1` [Compound 594, 2-(4-acetylpiperazin-1-yl)-6-[(1-acetylpiperidin-4-yl)amino]-N-[(2S)-2-hydroxy-3-{6-[(4-methyl-1,3-oxazol-5-yl)methoxy]-1,2,3,4-tetrahydroisoquinolin-2-yl}propyl]pyridine-4-carboxamide], for which the 50% inhibitory concentration (IC50) in the test on HAP1 MTAP-deleted was 1000 to 10000 nM; at PRMT5 [1], 500 to 5000 nM; in the test with HAP1 MTAP-intact, no less than 10000 nM; at PRMT5 [2] it was 50 to 500 nM; at PRMT5 [3], 50 to 500 nM. In addition, in the test on HAP1 MTAP-deleted, the “MTAP Intact/Deleted Ratio” value was “C* (an IC50 ratio of less than 3 fold between the IC50 in the HAP1 MTAP-intact cell line and the HAP1 MTAP-deleted cell line)”. Also, the “SAM/MTA Ratio” value on PRMT5 [3] (setting [5]) was “A (a Ki ratio greater than or equal to 10 fold between the Ki in the presence of SAM and the Ki in the presence of MTA)”.
